ChEMBL document CHEMBL3885861, “Open TG-GATES”

Species: Rattus norvegicus
Test: Open TG-GATES - Regimen: Daily Repeat
Assay type: toxicity, organism-based, Sprague-Dawley
Set-up: regimen Daily Repeat, gender Male, age 6 weeks
Settings: in vivo, po, route gavage; for APTT / Bas / Eos / Fbg / Hb / Ht / Lym / MCH / MCHC / MCV / Mono / Neu / PT / Plat / RBC / Ret / WBC: tissue Blood; for KIDNEY_L / KIDNEY_R / KIDNEY_TOTAL: tissue Kidney; for LIVER: tissue Liver; for A/G / ALP / ALT / AST / BUN / CRE / Ca / Cl / DBIL / GLC / IP / K / LDH / Na / PL / RALB / TBIL / TC / TG / TP / gamma-GTP: tissue Plasma
[1] = 0 mg/kg, 72 h, dose level Control, time 3 day
[2] = 0 mg/kg, […], dose level Control, time 7 day
[3] = 0 mg/kg, […], dose level Control, time 14 day
[4] = 0 mg/kg, […], dose level Control, time 28 day
[5] = 15 mg/kg, 72 h, dose level Low, time 3 day
[6] = 15 mg/kg, […], dose level Low, time 7 day
[7] = 15 mg/kg, […], dose level Low, time 14 day
[8] = 15 mg/kg, […], dose level Low, time 28 day

CC(C)C(=O)Nc1ccc([N+](=O)[O-])c(C(F)(F)F)c1 [FLUTAMIDE]
TERMINAL_BW [1]: 224.3 g
APTT [1]: 19 s
Bas [1]: 0%
Eos [1]: 1%
Fbg [1]: 219.2 mg/dL
Hb [1]: 13.9 g/dL
Ht [1]: 41.8%
Lym [1]: 79%
MCH [1]: 21.5 pg
MCHC [1]: 33.3%
MCV [1]: 64.6 fL
Mono [1]: 3%
Neu [1]: 16%
PT [1]: 12.4 s
Plat [1]: 122.4 x10_4/uL
RBC [1]: 648 x10_4/ul
Ret [1]: 5.4%
WBC [1]: 82.7 x10_2/uL
KIDNEY_L [1]: 1 g
KIDNEY_R [1]: 1 g
KIDNEY_TOTAL [1]: 2 g
LIVER [1]: 10.4 g
A/G [1]: 1.5
ALP [1]: 1016 IU/L
ALT [1]: 41.6 IU/L
AST [1]: 72.8 IU/L
BUN [1]: 13.6 mg/dL
CRE [1]: 0.4 mg/dL
Ca [1]: 10.5 mg/dL
Cl [1]: 103.8 meq/L
DBIL [1]: 0.09 mg/dL
GLC [1]: 220.2 mg/dL
IP [1]: 7.1 mg/dL
K [1]: 4.1 meq/L
LDH [1]: 204.4 IU/L
Na [1]: 139.8 meq/L
PL [1]: 139 mg/dL
RALB [1]: 3.3 g/dL
TBIL [1]: 0.1 mg/dL
TC [1]: 76.2 mg/dL
TG [1]: 71.8 mg/dL
TP [1]: 5.5 g/dL
gamma-GTP [1]: 0.8 IU/L
TERMINAL_BW [2]: 253 g
TERMINAL_BW [3]: 303.3 g
TERMINAL_BW [4]: 371.7 g
APTT [2]: 19.5 s
Bas [2]: 0%
Eos [2]: 1%
Fbg [2]: 230.6 mg/dL
Hb [2]: 13.8 g/dL
Ht [2]: 40.6%
Lym [2]: 81.6%
MCH [2]: 21.1 pg
MCHC [2]: 33.9%
MCV [2]: 62.3 fL
Mono [2]: 2.4%
Neu [2]: 14.6%
PT [2]: 12.2 s
Plat [2]: 133.9 x10_4/uL
RBC [2]: 652.6 x10_4/ul
Ret [2]: 4.9%
WBC [2]: 141.3 x10_2/uL
APTT [3]: 20.7 s
Bas [3]: 0%
Eos [3]: 0.8%
Fbg [3]: 227 mg/dL
Hb [3]: 14.4 g/dL
Ht [3]: 42.3%
Lym [3]: 80.8%
MCH [3]: 20.8 pg
MCHC [3]: 34.1%
MCV [3]: 60.9 fL
Mono [3]: 2.4%
Neu [3]: 15.2%
PT [3]: 12.2 s
Plat [3]: 128 x10_4/uL
RBC [3]: 695 x10_4/ul
Ret [3]: 4.3%
WBC [3]: 110.8 x10_2/uL
APTT [4]: 19.6 s
Bas [4]: 0%
Eos [4]: 0.8%
Fbg [4]: 229.6 mg/dL
Hb [4]: 15.2 g/dL
Ht [4]: 43.5%
Lym [4]: 82.8%
MCH [4]: 19.9 pg
MCHC [4]: 35%
MCV [4]: 56.8 fL
Mono [4]: 2.2%
Neu [4]: 13.6%
PT [4]: 12.2 s
Plat [4]: 107.9 x10_4/uL
RBC [4]: 765.6 x10_4/ul
Ret [4]: 2.3%
WBC [4]: 122 x10_2/uL
KIDNEY_L [2]: 1.1 g
KIDNEY_R [2]: 1.1 g
KIDNEY_TOTAL [2]: 2.2 g
KIDNEY_L [3]: 1.2 g
KIDNEY_R [3]: 1.2 g
KIDNEY_TOTAL [3]: 2.5 g
KIDNEY_L [4]: 1.3 g
KIDNEY_R [4]: 1.3 g
KIDNEY_TOTAL [4]: 2.7 g
LIVER [2]: 11.7 g
LIVER [3]: 13.4 g
LIVER [4]: 15 g
A/G [2]: 1.6
ALP [2]: 743.8 IU/L
ALT [2]: 35.2 IU/L
AST [2]: 61.6 IU/L
BUN [2]: 15.6 mg/dL
CRE [2]: 0.4 mg/dL
Ca [2]: 10.7 mg/dL
Cl [2]: 103.4 meq/L
DBIL [2]: 0.09 mg/dL
GLC [2]: 214.8 mg/dL
IP [2]: 6.8 mg/dL
K [2]: 3.7 meq/L
LDH [2]: 167.2 IU/L
Na [2]: 141 meq/L
PL [2]: 140.4 mg/dL
RALB [2]: 3.6 g/dL
TBIL [2]: 0.2 mg/dL
TC [2]: 72.6 mg/dL
TG [2]: 82.6 mg/dL
TP [2]: 5.8 g/dL
gamma-GTP [2]: 1.2 IU/L
A/G [3]: 1.5
ALP [3]: 842.2 IU/L
ALT [3]: 35 IU/L
AST [3]: 61.8 IU/L
BUN [3]: 14.4 mg/dL
CRE [3]: 0.4 mg/dL
Ca [3]: 10.6 mg/dL
Cl [3]: 103.2 meq/L
DBIL [3]: 0.096 mg/dL
GLC [3]: 202.2 mg/dL
IP [3]: 6.8 mg/dL
K [3]: 3.8 meq/L
LDH [3]: 150 IU/L
Na [3]: 141.2 meq/L
PL [3]: 133.4 mg/dL
RALB [3]: 3.5 g/dL
TBIL [3]: 0.2 mg/dL
TC [3]: 67 mg/dL
TG [3]: 100.4 mg/dL
TP [3]: 5.8 g/dL
gamma-GTP [3]: 0.8 IU/L
A/G [4]: 1.4
ALP [4]: 578 IU/L
ALT [4]: 32 IU/L
AST [4]: 50 IU/L
BUN [4]: 15.8 mg/dL
CRE [4]: 0.5 mg/dL
Ca [4]: 10.3 mg/dL
Cl [4]: 104.6 meq/L
DBIL [4]: 0.072 mg/dL
GLC [4]: 226.2 mg/dL
IP [4]: 7 mg/dL
K [4]: 3.8 meq/L
LDH [4]: 121.6 IU/L
Na [4]: 140.8 meq/L
PL [4]: 130.2 mg/dL
RALB [4]: 3.5 g/dL
TBIL [4]: 0.1 mg/dL
TC [4]: 70.4 mg/dL
TG [4]: 60.8 mg/dL
TP [4]: 6 g/dL
gamma-GTP [4]: 0.8 IU/L
TERMINAL_BW [5]: 223.1 g
APTT [5]: 18.7 s
Bas [5]: 0%
Eos [5]: 1%
Fbg [5]: 224.2 mg/dL
Hb [5]: 14 g/dL
Ht [5]: 41.8%
Lym [5]: 75.2%
MCH [5]: 21.6 pg
MCHC [5]: 33.6%
MCV [5]: 64.4 fL
Mono [5]: 3.2%
Neu [5]: 19.4%
PT [5]: 12.3 s
Plat [5]: 119.4 x10_4/uL
RBC [5]: 649.4 x10_4/ul
Ret [5]: 5.7%
WBC [5]: 84.8 x10_2/uL
KIDNEY_L [5]: 1 g
KIDNEY_R [5]: 1 g
KIDNEY_TOTAL [5]: 1.9 g
LIVER [5]: 11.2 g
A/G [5]: 1.8
ALP [5]: 847 IU/L
ALT [5]: 40 IU/L
AST [5]: 66.8 IU/L
BUN [5]: 14.4 mg/dL
CRE [5]: 0.4 mg/dL
Ca [5]: 10.9 mg/dL
Cl [5]: 104.2 meq/L
DBIL [5]: 0.1 mg/dL
GLC [5]: 216.8 mg/dL
IP [5]: 7.1 mg/dL
K [5]: 3.9 meq/L
LDH [5]: 177.6 IU/L
Na [5]: 140.8 meq/L
PL [5]: 157.4 mg/dL
RALB [5]: 3.6 g/dL
TBIL [5]: 0.2 mg/dL
TC [5]: 86.6 mg/dL
TG [5]: 86.2 mg/dL
TP [5]: 5.6 g/dL
gamma-GTP [5]: 1.2 IU/L
TERMINAL_BW [6]: 248.2 g
TERMINAL_BW [7]: 294.4 g
TERMINAL_BW [8]: 340.6 g
APTT [6]: 19.1 s
Bas [6]: 0%
Eos [6]: 1%
Fbg [6]: 217.8 mg/dL
Hb [6]: 13.6 g/dL
Ht [6]: 40.3%
Lym [6]: 84.6%
MCH [6]: 20.8 pg
MCHC [6]: 33.7%
MCV [6]: 61.6 fL
Mono [6]: 2%
Neu [6]: 12.2%
PT [6]: 12.3 s
Plat [6]: 124.4 x10_4/uL
RBC [6]: 654.8 x10_4/ul
Ret [6]: 4.6%
WBC [6]: 149.8 x10_2/uL
APTT [7]: 20.6 s
Bas [7]: 0%
Eos [7]: 0.6%
Fbg [7]: 228.4 mg/dL
Hb [7]: 14.3 g/dL
Ht [7]: 41.8%
Lym [7]: 82.4%
MCH [7]: 20.9 pg
MCHC [7]: 34.2%
MCV [7]: 61.1 fL
Mono [7]: 2.4%
Neu [7]: 13.4%
PT [7]: 12.3 s
Plat [7]: 104.8 x10_4/uL
RBC [7]: 684.6 x10_4/ul
Ret [7]: 3.8%
WBC [7]: 112.5 x10_2/uL
APTT [8]: 19.6 s
Bas [8]: 0%
Eos [8]: 1.2%
Fbg [8]: 229.2 mg/dL
Hb [8]: 15.1 g/dL
Ht [8]: 42.7%
Lym [8]: 82%
MCH [8]: 20 pg
MCHC [8]: 35.4%
MCV [8]: 56.4 fL
Mono [8]: 2.2%
Neu [8]: 13.6%
PT [8]: 12.4 s
Plat [8]: 106.7 x10_4/uL
RBC [8]: 758.8 x10_4/ul
Ret [8]: 2.1%
WBC [8]: 99.2 x10_2/uL
KIDNEY_L [6]: 1.1 g
KIDNEY_R [6]: 1.1 g
KIDNEY_TOTAL [6]: 2.1 g
KIDNEY_L [7]: 1.2 g
KIDNEY_R [7]: 1.2 g
KIDNEY_TOTAL [7]: 2.3 g
KIDNEY_L [8]: 1.3 g
KIDNEY_R [8]: 1.2 g
KIDNEY_TOTAL [8]: 2.5 g
LIVER [6]: 12.1 g
LIVER [7]: 13.5 g
LIVER [8]: 13.8 g
A/G [6]: 1.5
ALP [6]: 979.6 IU/L
ALT [6]: 37.6 IU/L
AST [6]: 62.6 IU/L
BUN [6]: 15.8 mg/dL
CRE [6]: 0.5 mg/dL
Ca [6]: 10.7 mg/dL
Cl [6]: 104.2 meq/L
DBIL [6]: 0.088 mg/dL
GLC [6]: 214.2 mg/dL
IP [6]: 7.4 mg/dL
K [6]: 4.1 meq/L
LDH [6]: 195.6 IU/L
Na [6]: 140.6 meq/L
PL [6]: 145 mg/dL
RALB [6]: 3.5 g/dL
TBIL [6]: 0.1 mg/dL
TC [6]: 74.2 mg/dL
TG [6]: 83.2 mg/dL
TP [6]: 5.8 g/dL
gamma-GTP [6]: 1.2 IU/L
A/G [7]: 1.5
ALP [7]: 728 IU/L
ALT [7]: 33.4 IU/L
AST [7]: 57.2 IU/L
BUN [7]: 12.8 mg/dL
CRE [7]: 0.5 mg/dL
Ca [7]: 10.7 mg/dL
Cl [7]: 104 meq/L
DBIL [7]: 0.09 mg/dL
GLC [7]: 200.4 mg/dL
IP [7]: 6.3 mg/dL
K [7]: 3.9 meq/L
LDH [7]: 137.8 IU/L
Na [7]: 141.2 meq/L
PL [7]: 149 mg/dL
RALB [7]: 3.4 g/dL
TBIL [7]: 0.1 mg/dL
TC [7]: 77.6 mg/dL
TG [7]: 96.4 mg/dL
TP [7]: 5.7 g/dL
gamma-GTP [7]: 0.6 IU/L
A/G [8]: 1.4
ALP [8]: 460.2 IU/L
ALT [8]: 34 IU/L
AST [8]: 54.4 IU/L
BUN [8]: 16.8 mg/dL
CRE [8]: 0.5 mg/dL
Ca [8]: 10.3 mg/dL
Cl [8]: 103.6 meq/L
DBIL [8]: 0.07 mg/dL
GLC [8]: 226.2 mg/dL
IP [8]: 6.1 mg/dL
K [8]: 3.4 meq/L
LDH [8]: 126.8 IU/L
Na [8]: 141.4 meq/L
PL [8]: 147 mg/dL
RALB [8]: 3.6 g/dL
TBIL [8]: 0.1 mg/dL
TC [8]: 83.4 mg/dL
TG [8]: 51.2 mg/dL
TP [8]: 6.2 g/dL
gamma-GTP [8]: 0.4 IU/L
